{"source": "patent US20250357519A1", "about": "“APPLICATIONS OF O2-INSENSITIVE FORMATE DEHYDROGENASE” (UNIVERSITY OF MARYLAND, BALTIMORE, priority 2022, published 2025)", "key": {"[1]": {"molecular_target": "T1, Desulfovibrio vulgaris Hildenborough (DvH) FDH2, recombinant Strep-tag II-tagged (FDH2^Rec), large subunit DVU2482 SEQ ID NO: 31, small subunit DVU2481 SEQ ID N (Nitratidesulfovibrio vulgaris, UniProt Q728X0)", "T1 sequence (Q728X0 36-1003)": "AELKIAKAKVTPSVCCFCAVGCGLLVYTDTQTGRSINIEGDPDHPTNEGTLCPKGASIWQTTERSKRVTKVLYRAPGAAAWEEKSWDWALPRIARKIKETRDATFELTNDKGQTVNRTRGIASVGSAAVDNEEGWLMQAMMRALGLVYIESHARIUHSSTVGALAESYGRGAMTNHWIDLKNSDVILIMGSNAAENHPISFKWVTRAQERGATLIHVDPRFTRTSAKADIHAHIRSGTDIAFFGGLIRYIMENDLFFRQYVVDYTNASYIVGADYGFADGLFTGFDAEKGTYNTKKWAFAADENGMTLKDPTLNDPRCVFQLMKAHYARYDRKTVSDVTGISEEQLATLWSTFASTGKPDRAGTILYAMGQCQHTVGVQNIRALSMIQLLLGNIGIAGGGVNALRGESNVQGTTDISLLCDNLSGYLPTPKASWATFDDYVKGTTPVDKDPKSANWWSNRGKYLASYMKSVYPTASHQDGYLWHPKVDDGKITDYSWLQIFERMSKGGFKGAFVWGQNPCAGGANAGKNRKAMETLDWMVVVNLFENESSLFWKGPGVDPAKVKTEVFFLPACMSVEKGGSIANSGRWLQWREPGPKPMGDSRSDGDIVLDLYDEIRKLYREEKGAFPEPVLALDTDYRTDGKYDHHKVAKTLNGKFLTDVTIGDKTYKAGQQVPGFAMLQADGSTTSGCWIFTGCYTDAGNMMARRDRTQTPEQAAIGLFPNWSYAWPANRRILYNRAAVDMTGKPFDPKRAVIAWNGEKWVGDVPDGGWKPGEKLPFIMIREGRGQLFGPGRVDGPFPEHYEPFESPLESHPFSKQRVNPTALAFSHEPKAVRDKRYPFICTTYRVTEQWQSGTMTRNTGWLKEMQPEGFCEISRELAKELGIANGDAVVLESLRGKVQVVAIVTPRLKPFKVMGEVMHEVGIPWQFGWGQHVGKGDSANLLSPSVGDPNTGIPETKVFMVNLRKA", "T1 sequence (Q728X1 1-260 partner)": "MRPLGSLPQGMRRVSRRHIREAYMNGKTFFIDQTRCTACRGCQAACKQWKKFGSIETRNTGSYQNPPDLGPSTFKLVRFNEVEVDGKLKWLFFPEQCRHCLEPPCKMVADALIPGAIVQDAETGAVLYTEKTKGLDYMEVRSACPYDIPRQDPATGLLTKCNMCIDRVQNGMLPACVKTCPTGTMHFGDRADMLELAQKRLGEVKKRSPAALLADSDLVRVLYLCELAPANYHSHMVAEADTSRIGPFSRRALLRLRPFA", "test": "Inhibition of PES/DCPIP reduction by DvH-FDH2", "assay_type": "biochemical", "design": "some rows (FDH2^WT, da Silva et al.) are the native enzyme", "conditions": "anaerobic and aerobic", "method": "FIG. 22. Effect of sodium azide on PES/DCPIP reduction by DvH-FDH2. Panel (A) illustrates raw anaerobic kinetics, Panel (B) illustrates data from Panel (A) converted to reduced DCPIP concentration, Panel (C) illustrates 4-parameter sigmoidal fit of Panel (B), Panel (D) illustrates aerobic raw traces, Panel (E) illustrates data from Panel (D) converted to reduced DCPIP concentration, and Panel (F) illustrates a 4-parameter sigmoidal fit of […]. IC50 values were in the range of 0.8 mM.\nFIG. 23. Effect of sodium nitrate on PES/DCPTP reduction by DvH-FDH2. Panel (A) illustrates raw anaerobic kinetics, Panel (B) illustrates data from Panel (A) converted to reduced DCPTP concentration, Panel (C) illustrates raw aerobic kinetics, and Panel (D) illustrates data from Panel (C) converted to reduced DCPTP concentration.\nTo test this hypothesis, activity assays were independently pursued with the PES/DCPIP pair. As has been observed for other dehydrogenases^91, PES served as an efficient electron acceptor for DvH-FDH2 (FIG. 19(A)). […]\nIn this dye-linked assay, PES (Em,7=+65 mV) serves as the primary electron acceptor. […] Assays were performed using a UV-2600i spectrophotometer (Shimadzu Life Sciences) equipped with T2 Peltier/stirrer accessory (Quantum) and monitored at 600 nm. […]"}, "DvH-FDH2": {"molecular_target": "DvH-FDH2 (Nitratidesulfovibrio vulgaris (Desulfovibrio vulgaris Hildenborough), UniProt Q728X0)", "assay_type": "biochemical"}}, "data": [{"smiles": "O=[N+]([O-])[O-].[Na+]", "note": "[nitrate, sodium nitrate]", "values": [{"measurement": "inhibition relative to azide", "setting": "[1]", "result": "far less effective"}, {"measurement": "Inhibition of DvH-FDH2 compared with azide", "setting": "DvH-FDH2", "result": "far less effective"}]}]}
